Results: US10351594B2, “Process for preparing compounds having triple activities of thrombolysis, antithrombosis, and radical scavenging” (Shanghai Lumosa Therapeutics Co., Ltd., priority 2013, dated 2019)
“Also recorded” adds a separate entry of the source. Marks after values point to notes of the source that are not given here.

What was measured:
[1] = test system: thrombus (rat arteriovenous bypass thrombolysis model); experiment: Thrombolytic activity via intravenous administration, rat arteriovenous bypass thrombolysis model; format: in vivo, male SD rats; details: for Weight reduction in thrombus: n = 10; for Thrombolytic activity, result in words: intravenous, 0.1 nmol/kg (5Ak also 0.01 and 0.001 nmol/kg), urokinase 20000 U/kg
Protocol: 200-220 g male SD rats were anesthetized with 20% urethane solution (6 mL/kg, ip). Anesthetized rats were fixed in a supine position, and the right common carotid artery was separated, clamped at the proximal end with an arterial clip, and penetrated with a suture at the proximal and distal ends, respectively. The suture at the distal end is clipped tightly by a hemostatic clamp at the skin/fur. Cannulation was performed at the distal end, the arterial clamp was loosened, and about 1 ml arterial blood was discharged into a 1 mL EP vial. 0.1 mL rat arterial blood was injected into a vertically fixed glass tube (15 mm in length, with an inner diameter of 2.5 mm and an outer diameter of 5.0 mm, sealed with a rubber stopper at the bottom), into which was immediately inserted a thrombus immobilization screw made of stainless steel. […] 40 min after the blood coagulated, the rubber stopper at the bottom of the glass tube was removed, the stem of the thrombus immobilization screw was fixed by forceps, and the thrombus-wrapped thrombus immobilization screw was carefully taken out from the glass tube and precisely weighted.
A bypass cannula was composed of 3 segments. The middle segment was a polyethylene tube having a length of 60 mm and an inner diameter of 3.5 mm. The segments on both ends were similar polyethylene tubes having a length of 100 mm, an inner diameter of 1 mm and an outer diameter of 2 mm, one end of which was pulled to form a tip, with an outer diameter of 1.0 mm (used in inserting into the rat carotid artery or vein), the other end of which was sheathed by a polyethylene tube having a length of 7 mm and an outer diameter of 3.5 mm (thickened, used in inserting into the polyethylene tube of the middle segment). The inner wall of the 3-segment cannula was entirely silylated. The thrombus-wrapped thrombus immobilization screw was placed into the polyethylene tube of the middle segment, and both ends of the tube sheath the thickened ends of two polyethylene tubes. The cannula was filled with a heparin solution in normal saline (50 IU/kg) through the tip end by using an injector and was ready for use.
The left external jugular vein of the rat was separated and penetrated with a suture at the proximal and distal ends respectively, and the distal end was ligated. An incision was carefully made on the exposed left external jugular vein, and the tip of the bypass cannula prepared as described above was inserted into the proximal end of the incision in the left external jugular vein, away from the stem of the thrombus immobilization screw in the middle segment of the bypass cannula (which accommodated the accurately weighed thrombus immobilization screw). A precise amount of heparin in saline (50 IU/kg) was injected through the tip at the other end by using an injector. At this moment, without removing the injector from the polyethylene tube, the tube between the injector and the polyethylene tube was clamped with a hemostatic clamp. The blood flow was stopped by clamping the proximal end of the right common carotid artery with an arterial clip, and an incision was cut carefully across the common carotid artery near the clip. The injector was pulled out of the polyethylene tube through the tip, and the tip of the polyethylene tube was then inserted into the proximal end of the artery incision. Both ends of the bypass cannula were fixed to the artery or vein with #4 sutures.
A scalp needle was used to pass saline solution, a urokinase in saline solution or varied concentrations of the compounds in saline solution through the middle section of the bypass cannula (which accommodated the accurately weighed thrombus immobilization screw) to a position at the proximal vein and away from the thrombus immobilization screw. The artery clip was then removed to allow blood to flow from the artery to the vein through the bypass cannula. A rat arteriovenous bypass thrombolysis model was thus established. […]

[2] = test system: formation of thrombus (rat arteriovenous bypass); experiment: Antithrombotic activity via intravenous administration, rat arteriovenous bypass cannula with thread; format: in vivo, male SD rats; details: for wet weight of thrombus: n = 10
Text: A cannula was composed of 3 segments. The middle segment has a length of 80 mm and an inner diameter of 3.5 mm. […] The pre-weighed, 60 mm in length thread was placed in the middle segment of the polyethylene tube. Both ends of the wider tube sheathed the un-narrowed ends of two polyethylene tubes respectively (0.5 mm of the thread was restrained by one of the segment to fix the thread). The cannula was filled with a heparin solution in normal saline (50 IU/kg) through the tip end by using an injector and was ready for use. 200-220 g male SD rats were anesthetized with 20% urethane solution (6 mL/kg, ip). Anesthetized rats were fixed in a supine position, and the left external jugular vein was separated and penetrated with a suture at the proximal and distal ends respectively, and the distal end was ligated. An incision was carefully made on the exposed left external jugular vein, and the tip end without thread-restraining of the bypass cannula prepared as described above was inserted into the proximal end of the open incision in the left external jugular vein. A precise amount of heparin in normal saline (50 IU/kg) was injected through the tip at the other end by using an injector. Then, the injector was replaced, and precise amount of drug was injected by the same way. At this moment, without removing the injector from the ethylene tube, the right common carotid artery was separated, and the proximal end was clipped by an artery clip. The right common carotid artery was penetrated with a suture at the proximal and distal ends respectively, and the distal end was ligated. An incision was carefully cut across the right common carotid artery near the artery clip. The injector was pulled out of the polyethylene tube through the tip, and the tip of the polyethylene tube was then inserted into the proximal end of the artery incision. Both ends of the bypass cannula were fixed to the artery or vein with #4 sutures. The artery clip was then removed to allow blood to flow from the artery to the vein through the bypass cannula. A rat arteriovenous bypass thrombolysis model was thus established. The process was timed from the beginning of circulation, the thread attached with thrombus was taken out from the bypass cannula after 15 minutes and accurately weighed. The difference in the mass of the thread before and after was determined as the wet weight of the thrombus, which was statistically analyzed and used to evaluate the in vivo antithrombotic activities of the compounds. The wet weight of the thrombus was expressed as average value and standard deviation (x±SD). The drug administration method is intravenous injection. The blank control was normal saline solution, and the dose was 1 mL/kg. The positive control was aspirin, and the dose was 9 mg/kg. The dose of compounds 5Aa-p of the present invention was 0.1 nmol/kg. The method was the same as in example 3. The drug administration method is intravenous injection. The blank control was normal saline solution, and the dose was 3 mL/kg. The positive control was aspirin, and the dose was 9 mg/kg.

[3] = NO radical scavenging activity (MGD/SNAP signal peak height); format: biochemical; details: n = 6
Protocol: 7.325 mg MGD (N-methyl-glucamine dithiocarbamate, Sigma) was dissolved in 1 mL of pure water to obtain 25 mM MGD solution. […] FeSO4.7H2O was dissolved in 1 mL of pure water to obtain 12.5 mM solution. […] SNAP (S-Nitroso-acetyl penicillamine) was dissolved in 1 mL of pure water to obtain 110 μM green mother liquid, which was diluted 100 folds to obtain 1 μM SNAP solution.
The first peak height of NO signal of 5 μL MGD solution+5 μL FeSO4.7H2O solution+5 μL SNAP solution+5 μL water was measured and repeated for 6 times. This peak height defined as the known peak height of NO signal. The first peak height of NO signal of 5 μL MGD solution+5 μL FeSO4.7H2O solution+5 μL SNAP solution+5 μL solution of one of the compounds 5Aa-p was measured and repeated for 6 times. This peak height defined as the residual peak height of the NO signal scavenged by one of the compounds 5Aa-p. Scavenging ratio=(known peak height of NO signal−residual peak height of NO signal of compounds 5Aa-p)/known peak height of NO signal

[4] = rat, intravenous injection, 5Aa-p 0.1 nmol/kg, 1 hour
[5] = rat, 5Aa-p (i.v.) 0.1 nmol/kg, 15 minutes

Compound	Weight reduction in thrombus [1, 4]	wet weight of thrombus [2, 5]	EC50 [3] [µM]	Thrombolytic activity, result in words ([1]; rat)	Weight reduction in thrombus ([1]; Table 2, 5Ak 0.001 nmol/kg i.v.)	Weight reduction in thrombus ([1]; Table 2, 5Ak 0.01 nmol/kg i.v.) [b mg]	Weight reduction in thrombus ([1]; Table 2, 5Ak 0.1 nmol/kg i.v.)	wet weight of thrombus ([2]; Table 4, 5Ak 0.1 nmol/kg i.v.)	Antithrombotic activity, result in words ([2]; rat, intravenous, 5Ak 0.1 nmol/kg (dose-effect: 0.1, 0.01, 0.001 nmol/kg))
CC(C)C[C@H](NC(=O)[C@H](C)NC(=O)[C@@H]1CCCN1)C(=O)NCCCC[C@H](NC(=O)[C@@H]1Cc2cc(O)c(O)cc2C(C)(C)N1)C(=O)O [Compound 5Al, 3S-6,7-dihydroxy-1,1-dimethyl-1,2,3,4-tetrahydro-isoquinoline-3-acyl-Lys(Pro-Ala-Leu)]	14.65 ± 2.86^a mg	54.20 ± 3.93^a mg	503 ± 41	–	–	–	–	–	–
C[C@H](NC(=O)[C@@H]1CCCN1)C(=O)N[C@@H](CO)C(=O)NCCCC[C@H](NC(=O)[C@@H]1Cc2cc(O)c(O)cc2C(C)(C)N1)C(=O)O [Compound 5Ah, 3S-6,7-dihydroxy-1,1-dimethyl-1,2,3,4-tetrahydro-isoquinoline-3-acyl-Lys(Pro-Ala-Ser)]	17.10 ± 1.79^a mg	50.67 ± 3.71^a mg	523 ± 85	–	–	–	–	–	–
3S-6,7-dihydroxy-1,1-dimethyl-1,2,3,4-tetrahydro-isoquinoline-3-acyl-Lys(Pro-Ala-Val) [Compound 5Ab]	17.12 ± 1.64^a mg	54.17 ± 6.61^a mg	532 ± 73	–	–	–	–	–	–
C[C@H](NC(=O)[C@@H]1CCCN1)C(=O)N[C@H](C(=O)NCCCC[C@H](NC(=O)[C@@H]1Cc2cc(O)c(O)cc2C(C)(C)N1)C(=O)O)[C@@H](C)O [Compound 5Aj, 3S-6,7-dihydroxy-1,1-dimethyl-1,2,3,4-tetrahydro-isoquinoline-3-acyl-Lys(Pro-Ala-Thr)]	15.23 ± 2.45^a mg	50.56 ± 3.96^a mg	510 ± 75	–	–	–	–	–	–
C[C@H](NC(=O)[C@@H]1CCCN1)C(=O)N[C@@H](CCC(N)=O)C(=O)NCCCC[C@H](NC(=O)[C@@H]1Cc2cc(O)c(O)cc2C(C)(C)N1)C(=O)O [Compound 5Am, 3S-6,7-dihydroxy-1,1-dimethyl-1,2,3,4-tetrahydro-isoquinoline-3-acyl-Lys(Pro-Ala-Gln)]	16.65 ± 2.52^a mg	58.14 ± 2.30^a mg	647 ± 88	–	–	–	–	–	–
3S-6,7-dihydroxy-1,1-dimethyl-1,2,3,4-tetrahydro-isoquinoline-3-acyl-Lys(Pro-Ala-Ala) [Compound 5Aa]	19.35 ± 2.76^b mg	54.04 ± 6.43^a mg	599 ± 38	comparable to that of urokinase; also recorded: higher thrombolytic activity	–	–	–	–	–
C[C@H](NC(=O)[C@@H]1CCCN1)C(=O)N[C@@H](Cc1ccccc1)C(=O)NCCCC[C@H](NC(=O)[C@@H]1Cc2cc(O)c(O)cc2C(C)(C)N1)C(=O)O [Compound 5Af, 3S-6,7-dihydroxy-1,1-dimethyl-1,2,3,4-tetrahydro-isoquinoline-3-acyl-Lys(Pro-Ala-Phe)]	17.92 ± 1.69^b mg	54.01 ± 4.25^a mg	568 ± 95	comparable to that of urokinase; also recorded: higher thrombolytic activity	–	–	–	–	–
CC[C@H](C)[C@H](NC(=O)[C@H](C)NC(=O)[C@@H]1CCCN1)C(=O)NCCCC[C@H](NC(=O)[C@@H]1Cc2cc(O)c(O)cc2C(C)(C)N1)C(=O)O [Compound 5Ai, 3S-6,7-dihydroxy-1,1-dimethyl-1,2,3,4-tetrahydro-isoquinoline-3-acyl-Lys(Pro-Ala-Ile)]	16.00 ± 2.03^a mg	56.12 ± 5.55^a mg	527 ± 90	–	–	–	–	–	–
3S-6,7-dihydroxy-1,1-dimethyl-1,2,3,4-tetrahydro-isoquinoline-3-acyl-Lys(Pro-Ala-Gly) [Compound 5Ag]	18.98 ± 2.14^b mg	54.28 ± 3.57^a mg	609 ± 95	comparable to that of urokinase; also recorded: higher thrombolytic activity	–	–	–	–	–
C[C@H](NC(=O)[C@@H]1CCCN1)C(=O)N[C@@H](CCCCN)C(=O)NCCCC[C@H](NC(=O)[C@@H]1Cc2cc(O)c(O)cc2C(C)(C)N1)C(=O)O [Compound 5Ak, 3S-6,7-dihydroxy-1,1-dimethyl-1,2,3,4-tetrahydro-isoquinoline-3-acyl-Lys(Pro-Ala-Lys)]	19.38 ± 2.81^b mg	51.93 ± 2.74^a mg	499 ± 89	comparable to that of urokinase; also recorded: higher thrombolytic activity; also recorded: highest thrombolytic activity; also recorded: obvious dose-effect relationship	11.73 ± 2.15 ^c mg	14.62 ± 2.46	21.61 ± 4.62^a mg	52.16 ± 2.02^a mg	effectively inhibit the formation of thrombus; also recorded: obvious dose-effect relationship
C[C@H](NC(=O)[C@@H]1CCCN1)C(=O)N[C@@H](Cc1c[nH]c2ccccc12)C(=O)NCCCC[C@H](NC(=O)[C@@H]1Cc2cc(O)c(O)cc2C(C)(C)N1)C(=O)O [Compound 5Ac, 3S-6,7-dihydroxy-1,1-dimethyl-1,2,3,4-tetrahydro-isoquinoline-3-acyl-Lys(Pro-Ala-Trp)]	16.23 ± 2.81^a mg	52.93 ± 3.96^a mg	463 ± 92	–	–	–	–	–	–
